According to patent US10472612B2, “Cell culture system” (PRESIDENT AND FELLOWS OF HARVARD COLLEGE, priority 2011, dated 2019):

Legend:
Caco-2 cell monolayer [1] = assay type: cell-based; settings: flow 40 μL/hr, cyclic strain 10%, 0.15 Hz
Experimental: Epithelial Barrier Measurements. The integrity of the human intestinal epithelial cell monolayer resulting from establishment of apical tight junctions was evaluated by staining for the tight junctional protein, occluidin,^29 using confocal immunofluorescence microscopy and by measuring trans-epithelial electrical resistance (TEER). In Transwell cultures, TEER was measured using a Millicell ERS meter (Millipore, Bedford, Mass.) coupled to a chopstick-like electrode, and TEER values (Ω cm^2) were determined by subtracting the baseline resistance value measured in the absence of cells and then multiplying the remaining ‘specific’ resistance value (Ω) times the cell culture surface area (cm^2). […] Again, the baseline resistance value measured in the absence of cells was subtracted from results obtained with the Caco-2 monolayer, and specific TEER values were determined by multiplying the specific resistance times the total cell culture surface area on the PDMS membrane (Table 1).

Caco-2 cell monolayer [2] = test: LGG co-culture on Caco-2 monolayer in static Transwell; assay type: cell-based, human; settings: first day of co-culture, not measurable after 48 hours
Experimental: Epithelial Barrier Measurements. The integrity of the human intestinal epithelial cell monolayer resulting from establishment of apical tight junctions was evaluated by staining for the tight junctional protein, occluidin,^29 using confocal immunofluorescence microscopy and by measuring trans-epithelial electrical resistance (TEER). In Transwell cultures, TEER was measured using a Millicell ERS meter (Millipore, Bedford, Mass.) coupled to a chopstick-like electrode, and TEER values (Ω cm^2) were determined by subtracting the baseline resistance value measured in the absence of cells and then multiplying the remaining ‘specific’ resistance value (Ω) times the cell culture surface area (cm^2). The TEER of the Caco-2 monolayer cultured in the Gut-on-a-Chip was measured using a voltage-ohm meter (87V Industrial Multimeter, Fluke Corporation, Everett, Wash.) coupled to Ag/AgCl electrode wires (0.008″ in diameter; A-M systems, Inc., Sequim, Wash.); control studies confirmed that similar TEER results were obtained with both methods. Again, the baseline resistance value measured in the absence of cells was subtracted from results obtained with the Caco-2 monolayer, and specific TEER values were determined by multiplying the specific resistance times the total cell culture surface area on the PDMS membrane (Table 1).
Microbial Studies. […]

[3] = test system: Caco-2 cell monolayer alone or with HMVE cell monolayer; test: Molecular permeability through cell monolayer in gut-on-a-chip with or without mechanical strain (Example 1); assay type: in vitro ADME, human; settings: Caco-2 monolayer alone or with HMVE monolayer; cyclic stretching 0.15 Hz, 30 μL/h
Experimental: In a fluidic condition (N=4), constant perfusion flow of 30 μL/h was conducted without any stretching motions (i.e. shear stresses only). […] In a static condition (N=4), transport experiment was performed in a Transwell system. Error bars indicate standard errors.
In a fluidic condition (N=2), constant perfusion flow at 30 μL/h was conducted without any stretching motions (i.e. shear stresses only). […] In a static condition (N=4), transport experiments were performed in the Transwell system. Error bars indicate standard errors.
In a fluidic condition (N=5), constant perfusion flow of 30 μL/h was conducted without any stretching motions (i.e. shear stresses only). […] In a static condition (N=3), transport experiment was performed in a Transwell system. Error bars indicate standard errors.
After the cell monolayers were fully confluent and stabilized under defined fluidic conditions, transport experiments were conducted. […] The co-cultured monolayers of Caco-2 and HMVE cells experienced with cyclic deformations for 12 hours or more prior to initiating the transport or barrier functional analysis experiments. […] Electrical resistances between the top and the bottom microchannels were monitored using an Ag/AgCl electrode equipped with an Ohm meter, and the resistance was converted into TEER value by multiplying values by the surface area of the cell monolayer. […]

Row | Substance | barrier integrity (TEER) during co-culture (Caco-2 cell monolayer [1]) | TEER during co-culture (Caco-2 cell monolayer [2]) | effect of mechanical strain on paracellular transport [3]
1 | Lactobacillus rhamnosus GG [LGG] | improved | dissipated | –
2 | Lucifer yellow | – | – | increased
